Results from PubChem BioAssay (NCI).
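These data come from cells grown in 96-well plates and exposed to compound for 48 hours at five concentrations. TGI: total growth inhibition.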

Test system: LOX IMVI melanoma
Experiment: inhibition of tumour cell growth, NCI panel, 48 h

Structure (SMILES) | TGI [µM]
O=C1Nc2cccc(Cl)c2/C1=C\c1c(Cl)nc2n1CCS2 | > 100
O=C(N/N=C(\c1ccccc1)c1ccccn1)NC1CCCCC1 | 51.7
C=CCc1cccc2cc(C(=O)NCc3ccccc3)c(=N)oc12 | > 100
NC(N)=NCCN1CC2CCC(CC2)C1 | > 100
COc1cc(Nc2nc3ccccc3nc2C(=O)O)cc(OC)c1OC | > 100
COC(=O)c1ccc(/C=C/c2cc(O)ccc2O)cc1 | 9.39
Cc1c(C)c2c(c(N)c1C#N)C(=O)N(NC(=O)c1ccccc1)C2=O | > 100
CC(=O)OC(OC(C)=O)c1ccc2ccc3cccc4ccc1c2c34 | 36

Test system: SN12C renal
Experiment: inhibition of tumour cell growth, NCI panel, 48 h

Structure (SMILES) | TGI [µM]
O=C1C=CC(=O)c2c1ccc1c3ccccc3n(CCCCCn3c4ccccc4c4ccc5c(c43)C(=O)C=CC5=O)c21 | 41.5
Cc1ccc(/C=N/Nc2cc(C)c3cccc(C)c3n2)s1 | 25.1
O=C1C2SC34c5c2c2ccccc2n5CCC3CCCN14 (centres undefined) | > 100
CC(=O)N(C(C)=O)c1ncc(-n2nc(-c3ccccc3)cc2-c2ccccc2)c(-c2ccccc2)n1 | > 10
CC(=O)Nc1sc(Br)cc1S(=O)(=O)c1ccc(Cl)cc1 | > 100
O=C1Sc2cc3ccccc3cc2C(=O)Sc2ccc(Br)cc21 | 16.8
O=C(/C=C/c1ccccc1)Oc1cccc(O)c1 | > 100
O=C1c2ccccc2C(=O)c2c(NCC(O)CO)ccc(NCC(O)CO)c21 (centres undefined) | > 100
COc1cccc(C(=O)Oc2ccc(OS(=O)(=O)c3ccc(C)cc3)cc2)c1C#N | > 100
C/C=C/C(CC(O)(C(F)(F)F)C(F)(F)F)=N/NC(N)=S | > 10
O=C1/C(=C/c2ccc(Br)s2)NC(=S)N1c1ccccc1 | > 100
Fc1ccc2c(c1)nc1n2C(c2c(Cl)cccc2Cl)SC1 (centres undefined) | 31
CC(C)C1=CC23CCC4C(C)(C(=O)O)CCCC4(C)C2CC1C1C(=O)N(c2ccc(Cc4ccc(N5C(=O)C6C7CC8C9(C)CCCC(C)(C(=O)O)C9CCC8(C=C7C(C)C)C6C5=O)cc4)cc2)C(=O)C13 (centres undefined) | 25.3
O=C(Nc1ccccc1)c1cc(S(=O)(=O)NC2=NC(c3ccccc3)c3cc(Cl)ccc3N2)c(SSc2cc(Cl)c(C(=O)Nc3ccccc3)cc2S(=O)(=O)NC2=NC(c3ccccc3)c3cc(Cl)ccc3N2)cc1Cl (centres undefined) | > 100
CCOC(=O)Nc1[nH]cc(-c2ccccc2)c1C#N | > 100
COc1ccc(C2SC(N)=Nc3c2c(C)nn3C(=O)c2ccncc2)cc1OC (centres undefined) | > 10
COC(=O)c1c(O)ccc2c1c1c(n2Cc2cc(OC)cc(OC)c2)C(=O)c2ccccc2C1 | > 100
O=C1Nc2cccc(Cl)c2/C1=C\c1c(Cl)nc2n1CCS2 | > 100
O=C(N/N=C(\c1ccccc1)c1ccccn1)NC1CCCCC1 | > 100
C=CCc1cccc2cc(C(=O)NCc3ccccc3)c(=N)oc12 | 91
NC(N)=NCCN1CC2CCC(CC2)C1 | > 100
COc1cc(Nc2nc3ccccc3nc2C(=O)O)cc(OC)c1OC | > 100
COC(=O)c1ccc(/C=C/c2cc(O)ccc2O)cc1 | 18.8
Cc1c(C)c2c(c(N)c1C#N)C(=O)N(NC(=O)c1ccccc1)C2=O | > 100
CC(=O)OC(OC(C)=O)c1ccc2ccc3cccc4ccc1c2c34 | > 100

Test system: SF-295 CNS
Experiment: inhibition of tumour cell growth, NCI panel, 48 h

Structure (SMILES) | TGI [µM]
O=C1C=CC(=O)c2c1ccc1c3ccccc3n(CCCCCn3c4ccccc4c4ccc5c(c43)C(=O)C=CC5=O)c21 | > 100
Cc1ccc(/C=N/Nc2cc(C)c3cccc(C)c3n2)s1 | 21.8
O=C1C2SC34c5c2c2ccccc2n5CCC3CCCN14 (centres undefined) | > 100
CC(=O)N(C(C)=O)c1ncc(-n2nc(-c3ccccc3)cc2-c2ccccc2)c(-c2ccccc2)n1 | > 10
CC(=O)Nc1sc(Br)cc1S(=O)(=O)c1ccc(Cl)cc1 | > 100
O=C1Sc2cc3ccccc3cc2C(=O)Sc2ccc(Br)cc21 | 29.1
O=C(/C=C/c1ccccc1)Oc1cccc(O)c1 | 34.3
COc1cccc(C(=O)Oc2ccc(OS(=O)(=O)c3ccc(C)cc3)cc2)c1C#N | > 100
CC1(C)/C(=N\NC(N)=O)C2CCC1C2 (centres undefined) | > 100
C/C=C/C(CC(O)(C(F)(F)F)C(F)(F)F)=N/NC(N)=S | > 10
O=C1/C(=C/c2ccc(Br)s2)NC(=S)N1c1ccccc1 | > 100
Fc1ccc2c(c1)nc1n2C(c2c(Cl)cccc2Cl)SC1 (centres undefined) | 26.8
O=C(Nc1ccccc1)c1cc(S(=O)(=O)NC2=NC(c3ccccc3)c3cc(Cl)ccc3N2)c(SSc2cc(Cl)c(C(=O)Nc3ccccc3)cc2S(=O)(=O)NC2=NC(c3ccccc3)c3cc(Cl)ccc3N2)cc1Cl (centres undefined) | > 100
CCOC(=O)Nc1[nH]cc(-c2ccccc2)c1C#N | > 100
COc1ccc(C2SC(N)=Nc3c2c(C)nn3C(=O)c2ccncc2)cc1OC (centres undefined) | > 10
COC(=O)c1c(O)ccc2c1c1c(n2Cc2cc(OC)cc(OC)c2)C(=O)c2ccccc2C1 | > 100
O=C1Nc2cccc(Cl)c2/C1=C\c1c(Cl)nc2n1CCS2 | > 100
O=C(N/N=C(\c1ccccc1)c1ccccn1)NC1CCCCC1 | > 100
NC(N)=NCCN1CC2CCC(CC2)C1 | > 100
COc1cc(Nc2nc3ccccc3nc2C(=O)O)cc(OC)c1OC | > 100
COC(=O)c1ccc(/C=C/c2cc(O)ccc2O)cc1 | > 100
Cc1c(C)c2c(c(N)c1C#N)C(=O)N(NC(=O)c1ccccc1)C2=O | > 100
CC(=O)OC(OC(C)=O)c1ccc2ccc3cccc4ccc1c2c34 | 37.5

Test system: MOLT-4 leukemia
Experiment: inhibition of tumour cell growth, NCI panel, 48 h

Structure (SMILES) | TGI [µM]
O=C1C=CC(=O)c2c1ccc1c3ccccc3n(CCCCCn3c4ccccc4c4ccc5c(c43)C(=O)C=CC5=O)c21 | 5.11
Cc1ccc(/C=N/Nc2cc(C)c3cccc(C)c3n2)s1 | 47.7
O=C1C2SC34c5c2c2ccccc2n5CCC3CCCN14 (centres undefined) | > 100
CC(=O)N(C(C)=O)c1ncc(-n2nc(-c3ccccc3)cc2-c2ccccc2)c(-c2ccccc2)n1 | > 10
CC(=O)Nc1sc(Br)cc1S(=O)(=O)c1ccc(Cl)cc1 | > 100
O=C1Sc2cc3ccccc3cc2C(=O)Sc2ccc(Br)cc21 | > 31.6
O=C(/C=C/c1ccccc1)Oc1cccc(O)c1 | 21.8
O=C1c2ccccc2C(=O)c2c(NCC(O)CO)ccc(NCC(O)CO)c21 (centres undefined) | > 100
COc1cccc(C(=O)Oc2ccc(OS(=O)(=O)c3ccc(C)cc3)cc2)c1C#N | > 100
CC1(C)/C(=N\NC(N)=O)C2CCC1C2 (centres undefined) | > 100
C/C=C/C(CC(O)(C(F)(F)F)C(F)(F)F)=N/NC(N)=S | > 10
O=C1/C(=C/c2ccc(Br)s2)NC(=S)N1c1ccccc1 | > 100
Fc1ccc2c(c1)nc1n2C(c2c(Cl)cccc2Cl)SC1 (centres undefined) | 52.5
CC(C)C1=CC23CCC4C(C)(C(=O)O)CCCC4(C)C2CC1C1C(=O)N(c2ccc(Cc4ccc(N5C(=O)C6C7CC8C9(C)CCCC(C)(C(=O)O)C9CCC8(C=C7C(C)C)C6C5=O)cc4)cc2)C(=O)C13 (centres undefined) | 32.9
O=C(Nc1ccccc1)c1cc(S(=O)(=O)NC2=NC(c3ccccc3)c3cc(Cl)ccc3N2)c(SSc2cc(Cl)c(C(=O)Nc3ccccc3)cc2S(=O)(=O)NC2=NC(c3ccccc3)c3cc(Cl)ccc3N2)cc1Cl (centres undefined) | > 58.3
CCOC(=O)Nc1[nH]cc(-c2ccccc2)c1C#N | > 100
COc1ccc(C2SC(N)=Nc3c2c(C)nn3C(=O)c2ccncc2)cc1OC (centres undefined) | > 10
COC(=O)c1c(O)ccc2c1c1c(n2Cc2cc(OC)cc(OC)c2)C(=O)c2ccccc2C1 | > 100
O=C1Nc2cccc(Cl)c2/C1=C\c1c(Cl)nc2n1CCS2 | > 100
O=C(N/N=C(\c1ccccc1)c1ccccn1)NC1CCCCC1 | > 100
C=CCc1cccc2cc(C(=O)NCc3ccccc3)c(=N)oc12 | > 100
NC(N)=NCCN1CC2CCC(CC2)C1 | > 100
COc1cc(Nc2nc3ccccc3nc2C(=O)O)cc(OC)c1OC | > 100
COC(=O)c1ccc(/C=C/c2cc(O)ccc2O)cc1 | 0.927
Cc1c(C)c2c(c(N)c1C#N)C(=O)N(NC(=O)c1ccccc1)C2=O | > 100
CC(=O)OC(OC(C)=O)c1ccc2ccc3cccc4ccc1c2c34 | > 100

Test system: NCI/ADR-RES ovarian
Experiment: inhibition of tumour cell growth, NCI panel, 48 h

Structure (SMILES) | TGI [µM]
O=C1C=CC(=O)c2c1ccc1c3ccccc3n(CCCCCn3c4ccccc4c4ccc5c(c43)C(=O)C=CC5=O)c21 | > 64.9
Cc1ccc(/C=N/Nc2cc(C)c3cccc(C)c3n2)s1 | 22.5
O=C1C2SC34c5c2c2ccccc2n5CCC3CCCN14 (centres undefined) | > 100
CC(=O)N(C(C)=O)c1ncc(-n2nc(-c3ccccc3)cc2-c2ccccc2)c(-c2ccccc2)n1 | > 10
CC(=O)Nc1sc(Br)cc1S(=O)(=O)c1ccc(Cl)cc1 | 52.3
O=C1Sc2cc3ccccc3cc2C(=O)Sc2ccc(Br)cc21 | 15.6
O=C(/C=C/c1ccccc1)Oc1cccc(O)c1 | > 100
O=C1c2ccccc2C(=O)c2c(NCC(O)CO)ccc(NCC(O)CO)c21 (centres undefined) | > 100
COc1cccc(C(=O)Oc2ccc(OS(=O)(=O)c3ccc(C)cc3)cc2)c1C#N | > 100
CC1(C)/C(=N\NC(N)=O)C2CCC1C2 (centres undefined) | > 100
C/C=C/C(CC(O)(C(F)(F)F)C(F)(F)F)=N/NC(N)=S | > 10
Fc1ccc2c(c1)nc1n2C(c2c(Cl)cccc2Cl)SC1 (centres undefined) | 27.7
O=C(Nc1ccccc1)c1cc(S(=O)(=O)NC2=NC(c3ccccc3)c3cc(Cl)ccc3N2)c(SSc2cc(Cl)c(C(=O)Nc3ccccc3)cc2S(=O)(=O)NC2=NC(c3ccccc3)c3cc(Cl)ccc3N2)cc1Cl (centres undefined) | > 100
CCOC(=O)Nc1[nH]cc(-c2ccccc2)c1C#N | > 100
COc1ccc(C2SC(N)=Nc3c2c(C)nn3C(=O)c2ccncc2)cc1OC (centres undefined) | > 10
COC(=O)c1c(O)ccc2c1c1c(n2Cc2cc(OC)cc(OC)c2)C(=O)c2ccccc2C1 | 63.1
O=C1Nc2cccc(Cl)c2/C1=C\c1c(Cl)nc2n1CCS2 | > 100
C=CCc1cccc2cc(C(=O)NCc3ccccc3)c(=N)oc12 | > 100
NC(N)=NCCN1CC2CCC(CC2)C1 | > 100
COc1cc(Nc2nc3ccccc3nc2C(=O)O)cc(OC)c1OC | > 100
COC(=O)c1ccc(/C=C/c2cc(O)ccc2O)cc1 | 7.72
Cc1c(C)c2c(c(N)c1C#N)C(=O)N(NC(=O)c1ccccc1)C2=O | > 100
CC(=O)OC(OC(C)=O)c1ccc2ccc3cccc4ccc1c2c34 | > 100

Test system: HCT-15 colon
Experiment: inhibition of tumour cell growth, NCI panel, 48 h

Structure (SMILES) | TGI [µM]
O=C1C=CC(=O)c2c1ccc1c3ccccc3n(CCCCCn3c4ccccc4c4ccc5c(c43)C(=O)C=CC5=O)c21 | 36.2
Cc1ccc(/C=N/Nc2cc(C)c3cccc(C)c3n2)s1 | 17.4
O=C1C2SC34c5c2c2ccccc2n5CCC3CCCN14 (centres undefined) | > 100
CC(=O)N(C(C)=O)c1ncc(-n2nc(-c3ccccc3)cc2-c2ccccc2)c(-c2ccccc2)n1 | > 10
O=C1Sc2cc3ccccc3cc2C(=O)Sc2ccc(Br)cc21 | 7.71
O=C(/C=C/c1ccccc1)Oc1cccc(O)c1 | 34.7
O=C1c2ccccc2C(=O)c2c(NCC(O)CO)ccc(NCC(O)CO)c21 (centres undefined) | > 100
COc1cccc(C(=O)Oc2ccc(OS(=O)(=O)c3ccc(C)cc3)cc2)c1C#N | > 100
CC1(C)/C(=N\NC(N)=O)C2CCC1C2 (centres undefined) | > 100
